Source: patent US7635779B2, “Oxy substituted flavones as antihyperglycemic and antidyslipidemic agents” (Council of Scientific & Industrial Research, priority 2004, dated 2009)
Where “and” joins values, the source holds several entries; their conditions need not be identical. Equal values may be shown once.

Experiments:
db/db mice [1] = assay: Antidyslipidemic activity in db/db mice; type: in vivo, mouse; settings: for % Fall in lipid levels HDL: HDL-cholesterol; for % Fall in lipid levels HDL / % Fall in lipid levels Chol.: + marks a rise; for % Fall in lipid levels Chol.: cholesterol; for % Fall in lipid levels TG: triglycerides
Excerpt: (§1) The db/db mouse is a well-characterized model of type II diabetes. The background for the db/db mouse is the C57BL/Ks strain. The major deficiency of the C57BL/KsBom-db mouse (db/db) is lack of a functional leptin receptor. This leads to defective leptin signaling and a complete lack of feedback from leptin. […] The db/db mouse develops NIDDM from around week 10. The disease is stable until week 20, where destruction of pancreatic β-cells can be recognized clinically as decreasing levels of plasma insulin and very severe hyperglycemia. The male mice are more diabetic than female and will normally die earlier. The advantage of using male mice for experimental purposes is that the fluctuations in plasma parameters are less than in the females where the estrogen cycles affects the clinical diabetes mellitus. The optimal age of db/db mice used for experiments will be from week 12 to 18 when they have developed NIDDM with diabetic dyslipidemia but still have functional β-cells in the pancreas. C57BL/KsBom-db mice 12-18 weeks, 40-50 g bred in the animal house of CDRI, Lucknow. 10 male mice were used in the experiments. The mice were housed in groups of 5 individuals in a room controlled for temperature (23+2° C.) and 12/12 hours light/dark cycle (lights on at 6.00 am). Body weight was measured daily from day 1 to day 10. All animals had free access to fresh water and to normal chow except on the days of the postprandial protocol day 6 and during the overnight fast before the OGTT on day 10. Blood glucose was checked every morning up till day 5. On day 6 postprandial protocol was employed, in this method blood glucose was checked at −0.30 min and 0 h. Test compounds were given to the treatment group whereas control group received only gum acacia (1.0%); the blood glucose was again checked at 1, 2, 3, 4 and 6 h post test compound treatment. Finally on day 10 an oral glucose tolerance test (OGTT) was performed after an overnight fasting. Blood glucose was measured at −0.30 min and test drugs were fed, blood glucose was again measured at 0.0 min post treatment, at this juncture glucose solution was given at a dose of 3 gm/kg to all the groups including control group; the profile of blood glucose was checked at 30 min, 60 min, 90 min and 120 min post glucose administration. Quantitative glucose tolerance of each animal was calculated by Area Under Curve (AUC) method (Prism Software). Comparing the AUC of experimental and control groups determined the percentage antihyperglycemic activity. Statistical comparison was made by Dunnett's test.
Cholesterol and triglycerides were estimated using the same procedures as given above.
HDL-Cholesterol was estimated using the kit provided by the Roche Diagnostics. Cholestest N HDL is a liquid reagent that directly measures the HDL-cholesterol concentration in serum by a new method that is based on the selective solubilising effect of proprietary detergent to the different lipoproteins. In the assay system, only HDL is solubilised by a special detergent; other lipoproteins are not disrupted. After HDL is selectively disrupted, HDL cholesterol is measured enzymatically (Gordon, T.; Casstelli, W. P.; Hjortland, M. C.; Kannel, W. B.; Dawber, T. R. High density lipoproteins as a protective factor against coronary heart disease, Am. J. Med. 1977, 62, 707-714.).

db/db mice [2] = assay: Antihyperglycemic activity in db/db mice; type: in vivo, mouse; settings: for % Fall in blood glucose levels, 6 days: day 6; for % Fall in blood glucose levels, 10 days: day 10
Excerpt: as §1

sucrose loaded rat = assay: Sucrose loaded rat model (SLM), antihyperglycemic activity; type: in vivo; settings: for inhibition in vivo at 100 mg/kg: Rattus norvegicus, po, 2 h, read-out: % Fall in blood glucose levels, SLM
Protocol: Male albino rats of Charles Foster/Wistar strain of average body weight 160±20 g were selected for this study. The blood glucose level of each animal was checked by glucometer using glucostrips (Boehringer Mannheim) after 16 h starvation. Animals showing blood glucose levels between 3.33 to 4.44 mM (60 to 80 mg/dl) were divided into groups of five to six animals in each. Animals of experimental group were administered suspension of the desired synthetic compound orally (made in 1.0% gum acacia) at a dose of 100-mg/kg-body weight. Animals of control group were given an equal amount of 1.0% gum acacia. A sucrose load (10.0 g/kg) was given to each animal orally exactly after 30 min post administration of the test sample/vehicle. Blood glucose profile of each rat was again determined at 30, 60, 90 and 120 min post administration of sucrose by glucometer. Food but not water was withheld from the cages during the course of experimentation. Quantitative glucose tolerance of each animal was calculated by Area Under Curve (AUC) method (Prism Software). Comparing the AUC of experimental and control groups determined the percentage antihyperglycemic activity. Statistical comparison was made by Dunnett's test.

| Compound | % Fall in lipid levels HDL (db/db mice [1]) | % Fall in lipid levels Chol. (db/db mice [1]) | % Fall in lipid levels TG (db/db mice [1]) [%] | % Fall in blood glucose levels, 6 days (db/db mice [2]) [%] | % Fall in blood glucose levels, 10 days (db/db mice [2]) | inhibition in vivo at 100 mg/kg (sucrose loaded rat) [%] | % Fall in blood glucose levels, SLM (sucrose loaded rat; 100 mg/kg oral, AUC vs control) [%] | Antihyperglycemic (glucose lowering) activity in words (sucrose loaded rat; SLM as well as STZ model) |
| --- | --- | --- | --- | --- | --- | --- | --- | --- |
| CC(C)(C)NCC(O)COc1ccc2c(=O)cc(-c3cc(OCc4ccccc4)cc(OCc4ccccc4)c3)oc2c1 (stereo not shown) [Compound 34, 7-(3-tert-Butylamino-2-hydroxy-propoxy)-3′,5′-dibenzyloxy-flavone] | +19.3% | +26.9% | 33.5 | 26.4 | 57.1% | 29.4 |  |  |
| CC(C)NCC(O)COc1ccc2c(=O)cc(-c3cc(O)cc(O)c3)oc2c1 (stereo not shown) [Compound 49, 3′,5′-Dihydroxy-7-(2-hydroxy-3-iso-propylamino-propoxy)-flavone] | +12.7% | 17.2% | 24.1 | 9.38 | 20.8% and 20.5% | 29 |  |  |
| COc1cc(-c2cc(=O)c3ccc(OCCCOc4ccc(C=C5SC(=O)NC5=O)cc4)cc3o2)cc(OC)c1OC [Compound 65, 7-{3-[4-(thiazolidin-2,4-dione-5-ylidinemethyl)-phenoxy]-propoxy}-3′,4′,5′-trimethoxy-flavone] | 35.2% | 1.06% | 19.1 | 19.1 | 21.4% |  | 29.30 | significant and consistent glucose lowering activity |
